Measured values: PMC6273431, “The Structure–Antimicrobial Activity Relationships of a Promising Class of the Compounds Containing the N-Arylpiperazine Scaffold” (Molecules, 2016)
Read-outs that look alike come from different tables or passages of the source.

Experiments:
[1] = system: Mycobacterium avium subsp. paratuberculosis CIT03; test: antimycobacterial MIC, MB broth, alamarBlue; assay type: cell-based; conditions: 264 h, read-out: MIC MAP
Description: The Mycobacterium avium subsp. paratuberculosis CIT03 strain was grown in the Middlebrook (MB) broth, supplemented with the Oleic-Albumin-Dextrose-Catalase Supplement (OADC, Becton Dickinson, Oxford, UK) and the mycobactin J (2 μg/mL). The commercially available siderophore mycobactin J reduced the incubation period of M. avium subsp. paratuberculosis in a complex medium when compared to the medium containing the mycobactin P as a growth factor.
The identification of the isolate was performed using biochemical and molecular protocols. At a log phase growth, a culture sample (10 mL) was centrifuged at 15,000 rpm/20 min using a bench top centrifuge (Model CR 4-12, Jouan Inc., London, UK). Following removal of the supernatant, the pellet was washed in fresh Middlebrook 7H9GC broth and re-suspended in fresh supplemented MB broth (10 mL). The turbidity was adjusted to match the McFarland standard No. 1 containing approximately 3.0 × 10^8 Colony Forming Units (CFU) with the MB broth. Further 1:20 dilution of the culture was performed in the MB broth. The susceptibility of given mycobacterial species was investigated in a 96-well plate format. In those experiments, sterile deionised water (300 μL) was added to all outer-perimeter wells of the plates to minimize an evaporation of the medium in the test wells during the incubation process. Each evaluated compound (100 μL) was incubated with the mycobacterial species (100 μL). The dilutions of a particular compound were prepared in triplicate. For all inspected derivatives, final concentrations ranged from 1000 μg/mL to 60 μg/mL. All compounds were prepared in dimethyl sulfoxide (DMSO; Sigma-Aldrich, Irvine, UK) and subsequent dilutions were made in the supplemented MB broth. The plates were sealed with a parafilm and incubated at 37 °C for 11 days. Following the incubation, a 10% addition of a water‑soluble dye, the alamarBlue reagent (AbD Serotec, Kidlington, UK), was mixed into each well. Absorbance readings at 570 nm and 600 nm were taken, initially for background subtraction and after 24 h re-incubation. The subtraction is necessary for strongly coloured compounds, where the colour may interfere with the interpretation of any colour change. For non-interfering compounds, a blue colour in a well was interpreted as an absence of a growth and a pink colour was scored as a growth.
The minimum inhibitory concentration (MIC) was defined as the lowest concentration of the compound at which no visible bacterial growth was observed. In other words, the MIC was the lowest concentration that prevented a visual colour change from blue to pink. The MIC value has been routinely and widely used in bacterial assays and it has been a standard detection limit according to the Clinical and Laboratory Standards Institute. The clinically used antimycobacterial drugs INH and RIF were applied as the standards.

M. smegmatis ATCC 700084 = test: antimycobacterial MIC, broth dilution micromethod; assay type: cell-based; conditions: Mycolicibacterium smegmatis, ATCC700084, 72 h, 3 days at 37 °C
M. kansasii DSM 44162 = test: antimycobacterial MIC, broth dilution micromethod; assay type: cell-based; conditions: Mycobacterium kansasii, DSM44162, 168 h, 7 days at 37 °C
M. marinum CAMP 5644 = test: antimycobacterial MIC, broth dilution micromethod; assay type: cell-based; conditions: Mycobacterium marinum, CAMP5644, 504 h, 21 days at 28 °C
[2] = system: Enterococcus faecalis ATCC 29212; test: antibacterial MIC, microtitration broth method; assay type: cell-based; conditions: 37 °C
Description: (§1) Prior to the testing, each strain was transferred into a nutrient agar (Oxoid Limited, Basingstoke, UK), which was enriched with 5% defibrinated bovine blood.
(§2) The MICs were determined by the microtitration broth method in the cation-adjusted Mueller-Hinton broth (Becton Dickinson, Oxford, UK) according to an international interdisciplinary Clinical Laboratory Standard Institute guidelines.
(§3) The checkerboard was inoculated by the bacterial inocula, which were prepared in a phosphate buffered saline solution with the pH = 7.2–7.3 to simulate physiological pH. The final concentration of each inoculum in the final volume of 100 μL in the wells was approximately 7.5 × 10^6 CFU/mL. Drug-free controls, sterility controls and the controls consisted of the broth with DMSO were included. The determination of the results was performed visually after 24 h of static incubation in the darkness at 37 °C in an aerobic atmosphere.
(§4) To ensure reproducibility, each antibacterial MIC assay was performed triplicate on separate occasions.

[3] = system: Escherichia coli ATCC 25922; test: antibacterial MIC, microtitration broth method; assay type: cell-based; conditions: 37 °C
Description: as §1, §2, §3, §4

[4] = system: Staphylococcus aureus ATCC 29213; test: antibacterial MIC, microtitration broth method; assay type: cell-based; conditions: 37 °C
Description: as §1, §2, §3, §4

[5] = system: methicillin-resistant Staphylococcus aureus 63718; test: antibacterial MIC, microtitration broth method; assay type: cell-based; conditions: MRSA, 37 °C
Description: as §1, §2, §3, §4

[6] = system: Candida albicans CCM 8261; test: candidacidal MIC, microdilution method; assay type: cell-based; conditions: Candida albicans, CCM8261, 48 h, 37 °C
Description: (§5) In order to provide a look into the potential usefulness of the derivatives 5a–l as the candidates for a development of anti-yeast (candidacidal) agents, they were in vitro tested against Candida albicans CCM 8261 (CA 8261), C. krusei CCM 8271 (CK 8271) and C. parapsilosis CCM 8260 (CP 8260). The yeasts were obtained from the Czech Collection of Microorganisms (Masaryk University, Faculty of Science, Brno, Czech Republic). They were grown and kept on Sabouraud agar (Oxoid Limited, Basingstoke, UK).
(§6) For the screening, the microdilution method according to the Antimicrobial Susceptibility Testing Protocols was applied. The inoculum was prepared from the cultures grown on Sabouraud agar. With the sterile solution of NaCl, the inoculum was prepared to the 0.5 McFarland units using the Densi-La-Meter densitometer (LIAP, Riga, Latvia) and diluted a thousand‑fold with the Roswell Park Memorial Institute (RPMI) 1640 medium (Sigma-Aldrich, Darmstadt, Germany). Prepared suspension was used for an inoculation of microtitre plates. Final concentration in wells ranged from 5.0 × 10^2 CFU/mL to 2.5 × 10^3 CFU/mL. […] For the determination of the MICs, the stock solutions of all the tested compounds were diluted in the microtitre checkerboard to the final concentration varying from 128 μg/mL to 0.125 μg/mL. Drug-free control, sterility control and the control consisted of a medium and DMSO alone were included. Inoculated microtitre plates were incubated for 48 h in the darkness at 37 °C in an aerobic atmosphere. The results were estimated against static light.
(§7) The MIC was defined as the lowest concentration of the tested compound at which no visible growth was observed. To ensure reproducibility of the results, each candidacidal MIC assay was performed triplicate on separate occasions. It was important to note that all the MICs from the in vitro antimicrobial screening were expressed in μg/mL units and were available in Tables S3 and S4 (Supplementary Materials).

Candida krusei CCM 8271 = test: candidacidal MIC, microdilution method; assay type: cell-based; conditions: Pichia kudriavzevii, CCM8271, 48 h, 37 °C
Description: as §5, §6, §7

[7] = system: Candida parapsilosis CCM 8260; test: candidacidal MIC, microdilution method; assay type: cell-based; conditions: Lodderomyces parapsilosis, CCM8260, 48 h, 37 °C
Description: as §5, §6, §7

[8] = design: method as in PMID 16209439, PMID 16209439; conditions: potentiometric titration; cited from earlier work
[9] = design: method as in PMID 16209439, PMID 16209439, doi:10.2478/s11696-006-0007-y; conditions: octan-1-ol/phosphate buffer (pH = 7.4); cited from earlier work

SMILES | MIC ([1]; 37 °C, 11 days) [µM] | MIC [1] [mg/L] | MIC (M. smegmatis ATCC 700084) [µM] | MIC (M. smegmatis ATCC 700084; Table S3) [mg/L] | MIC (M. kansasii DSM 44162) [µM] | MIC (M. kansasii DSM 44162; Table S3) [mg/L] | MIC (M. marinum CAMP 5644) [µM] | MIC (M. marinum CAMP 5644; Table S3) [mg/L] | MIC ([2]; ATCC29212, 24 h) [µM] | MIC ([2]; ATCC29212, Table S4, 24 h) [mg/L] | MIC ([3]; ATCC25922, 24 h) [µM] | MIC ([3]; ATCC25922, Table S4, 24 h) [mg/L] | MIC ([4]; ATCC29213, 24 h) [µM] | MIC ([4]; ATCC29213, Table S4, 24 h) [mg/L] | MIC ([5]; 24 h) [µM] | MIC ([5]; Table S4, 24 h) [mg/L] | MIC [6] [µM] | MIC ([6]; Table S4) [mg/L] | MIC (Candida krusei CCM 8271) [µM] | MIC (Candida krusei CCM 8271; Table S4) [mg/L] | further results
CCOc1cccc(NC(=O)OCC(O)CN2CCN(c3ccc(F)cc3)CC2)c1.Cl (stereo not drawn) [Compound 5j, 1-[3-(3-ethoxyphenylcarbamoyl)oxy-2-hydroxypropyl]-4-(4-fluorophenyl)piperazin-1-ium chloride] | 551 | 250 | 282 | 128 | 17.6 | 8 | 141 | 64 | > 564 | > 256 | > 564 | > 256 | > 564 | > 256 | > 564 | > 256 | > 282 | > 128 | > 282 | > 128 | MIC [7]: > 282 µM; MIC ([7]; Table S4): > 128 mg/L; pKa [8]: 6.31; log Pexp [9]: 3.59
COc1ccc(NC(=O)OCC(O)CN2CCN(c3ccc(F)cc3)CC2)cc1 (stereo not drawn) [Compound 5k] | 2270 | 1000 | 582 | 256 | 291 | 128 | 582 | 256 | > 582 | > 256 | > 582 | > 256 | > 582 | > 256 | > 582 | > 256 | > 291 | > 128 | > 291 | > 128 | MIC [7]: > 291 µM; MIC ([7]; Table S4): > 128 mg/L; pKa [8]: 7.24; log Pexp [9]: 3.42
CCOc1ccc(NC(=O)OCC(O)CN2CCN(c3ccc(F)cc3)CC2)cc1 (stereo not drawn) [Compound 5l] | 2200 | 1000 | 564 | 256 | 564 | 256 | 282 | 128 | > 564 | > 256 | > 564 | > 256 | > 564 | > 256 | > 564 | > 256 | > 282 | > 128 | > 282 | > 128 | MIC [7]: > 282 µM; MIC ([7]; Table S4): > 128 mg/L; pKa [8]: 7.18; log Pexp [9]: 3.28
